According to ChEMBL document CHEMBL3259726, “Identification of a new series of potent diphenol HSP90 inhibitors by fragment merging and structure-based optimization” (Bioorg Med Chem Lett, 2014):

How the values were obtained:
[1] = Retention time of the compound; assay type: physicochemical
[2] = molecular target: T1, Heat shock protein HSP 90-alpha (Homo sapiens, UniProt P07900); assay: biochemical
Description: Displacement of GM-BODIPY from human full length HSP90 alpha expressed in baculovirus-infected Sf9 cells after 16 hrs by fluorescence polarization assay

[3] = molecular target: T1, Heat shock protein HSP 90-alpha; assay: Displacement of GM-BODIPY from human full length HSP90 alpha expressed in baculovirus-infected Sf9 cells at 5 uM after 16 hrs by fluorescence polarization assay
[4] = Intrinsic clearance in rat liver microsomes at 1 uM after 5 mins by LC-MS/MS analysis; assay type: ADME; details: read-out: CLH
CYP2D6 = CYP2D6 (Homo sapiens, UniProt P10635); assay: Inhibition of CYP2D6 in human liver microsomes using dextromethorphan as substrate at 10 uM; assay type: ADME; details: probe dextromethorphan
Chain of CYP2D6 (P10635 whole entry): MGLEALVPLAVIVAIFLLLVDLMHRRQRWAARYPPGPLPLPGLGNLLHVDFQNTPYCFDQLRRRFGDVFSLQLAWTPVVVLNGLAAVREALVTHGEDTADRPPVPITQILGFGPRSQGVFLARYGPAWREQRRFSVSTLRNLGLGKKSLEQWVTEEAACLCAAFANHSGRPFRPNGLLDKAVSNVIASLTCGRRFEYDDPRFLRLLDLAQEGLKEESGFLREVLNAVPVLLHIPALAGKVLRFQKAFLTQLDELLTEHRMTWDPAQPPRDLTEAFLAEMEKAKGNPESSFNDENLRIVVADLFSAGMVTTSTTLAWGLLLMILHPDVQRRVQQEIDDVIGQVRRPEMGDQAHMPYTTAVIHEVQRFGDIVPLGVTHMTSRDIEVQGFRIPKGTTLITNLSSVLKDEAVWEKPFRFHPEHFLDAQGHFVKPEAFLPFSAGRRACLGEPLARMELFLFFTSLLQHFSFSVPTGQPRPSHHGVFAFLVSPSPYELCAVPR

CYP2C9 = CYP2C9 (Homo sapiens, UniProt P11712); assay: Inhibition of CYP2C9 in human liver microsomes using diclofenac as substrate at 10 uM; assay type: ADME; details: probe diclofenac
Chain of CYP2C9 (P11712 whole entry): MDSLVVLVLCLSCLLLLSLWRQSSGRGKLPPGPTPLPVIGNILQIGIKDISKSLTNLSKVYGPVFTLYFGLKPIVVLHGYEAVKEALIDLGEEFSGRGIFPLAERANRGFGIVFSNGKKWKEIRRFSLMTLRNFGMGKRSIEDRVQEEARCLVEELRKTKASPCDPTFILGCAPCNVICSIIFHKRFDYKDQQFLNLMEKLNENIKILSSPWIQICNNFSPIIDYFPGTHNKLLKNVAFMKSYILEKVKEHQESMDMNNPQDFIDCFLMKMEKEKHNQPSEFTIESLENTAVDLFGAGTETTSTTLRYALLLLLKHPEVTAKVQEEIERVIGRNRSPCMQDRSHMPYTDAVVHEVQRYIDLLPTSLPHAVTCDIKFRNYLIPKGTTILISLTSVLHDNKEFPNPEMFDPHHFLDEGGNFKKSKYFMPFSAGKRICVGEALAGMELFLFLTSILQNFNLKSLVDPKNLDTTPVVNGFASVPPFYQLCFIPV

CYP1A2 = molecular target: T2, CYP1A2 (Homo sapiens, UniProt P05177); assay: Inhibition of CYP1A2 in human liver microsomes using phenacetin as substrate at 10 uM; assay type: ADME; details: probe phenacetin
T2 sequence (P05177 whole entry): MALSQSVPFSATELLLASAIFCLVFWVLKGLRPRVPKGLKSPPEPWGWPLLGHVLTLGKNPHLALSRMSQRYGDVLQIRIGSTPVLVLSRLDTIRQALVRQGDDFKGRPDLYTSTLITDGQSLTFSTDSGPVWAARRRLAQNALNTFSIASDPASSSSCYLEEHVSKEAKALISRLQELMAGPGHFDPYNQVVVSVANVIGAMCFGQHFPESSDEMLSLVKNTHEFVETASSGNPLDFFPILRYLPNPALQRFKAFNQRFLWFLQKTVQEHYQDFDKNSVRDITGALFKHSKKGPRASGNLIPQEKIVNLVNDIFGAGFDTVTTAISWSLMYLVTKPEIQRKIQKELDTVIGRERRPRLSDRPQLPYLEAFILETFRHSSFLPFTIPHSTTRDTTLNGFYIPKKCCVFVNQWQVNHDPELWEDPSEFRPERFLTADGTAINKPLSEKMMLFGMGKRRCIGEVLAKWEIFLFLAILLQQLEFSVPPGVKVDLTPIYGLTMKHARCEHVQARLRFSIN

CYP2C19 = CYP2C19 (Homo sapiens, UniProt P33261); assay: Inhibition of CYP2C19 in human liver microsomes using mephenytoin as substrate at 10 uM; assay type: ADME; details: probe mephenytoin
Chain of CYP2C19 (P33261 whole entry): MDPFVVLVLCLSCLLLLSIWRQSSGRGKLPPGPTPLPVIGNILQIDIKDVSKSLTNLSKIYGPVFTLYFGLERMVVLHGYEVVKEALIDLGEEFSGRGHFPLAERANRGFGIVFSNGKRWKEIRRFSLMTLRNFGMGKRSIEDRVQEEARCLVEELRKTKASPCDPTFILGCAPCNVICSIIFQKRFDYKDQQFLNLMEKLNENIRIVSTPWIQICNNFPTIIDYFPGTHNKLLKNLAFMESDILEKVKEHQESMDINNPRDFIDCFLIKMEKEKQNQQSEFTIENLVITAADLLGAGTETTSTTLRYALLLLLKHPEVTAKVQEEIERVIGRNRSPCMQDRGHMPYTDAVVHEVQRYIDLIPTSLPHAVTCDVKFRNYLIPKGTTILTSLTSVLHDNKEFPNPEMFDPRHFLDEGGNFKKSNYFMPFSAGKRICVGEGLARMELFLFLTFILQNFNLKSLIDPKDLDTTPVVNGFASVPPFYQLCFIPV

HCT-116 = assay: Growth inhibition of human HCT116 cells after 72 hrs by spectrophotometer analysis; assay type: functional; details: HCT-116, 72 h
[5] = Growth inhibition of human NCI-H3122 cells after 72 hrs by spectrophotometer analysis; assay type: functional; details: NCI-H3122, 72 h
A549 = assay: Growth inhibition of human A549 cells after 72 hrs by spectrophotometer analysis; assay type: functional; details: A549, 72 h
[6] = Growth inhibition of human BT474 cells after 72 hrs by spectrophotometer analysis; assay type: functional; details: BT-474, 72 h
CYP3A4 = CYP3A4 (Homo sapiens, UniProt P08684); assay: Inhibition of CYP3A4 in human liver microsomes using midazolam or testosterone as substrate at 10 uM; assay type: ADME; details: probe midazolam or testosterone
Chain of CYP3A4 (P08684 whole entry): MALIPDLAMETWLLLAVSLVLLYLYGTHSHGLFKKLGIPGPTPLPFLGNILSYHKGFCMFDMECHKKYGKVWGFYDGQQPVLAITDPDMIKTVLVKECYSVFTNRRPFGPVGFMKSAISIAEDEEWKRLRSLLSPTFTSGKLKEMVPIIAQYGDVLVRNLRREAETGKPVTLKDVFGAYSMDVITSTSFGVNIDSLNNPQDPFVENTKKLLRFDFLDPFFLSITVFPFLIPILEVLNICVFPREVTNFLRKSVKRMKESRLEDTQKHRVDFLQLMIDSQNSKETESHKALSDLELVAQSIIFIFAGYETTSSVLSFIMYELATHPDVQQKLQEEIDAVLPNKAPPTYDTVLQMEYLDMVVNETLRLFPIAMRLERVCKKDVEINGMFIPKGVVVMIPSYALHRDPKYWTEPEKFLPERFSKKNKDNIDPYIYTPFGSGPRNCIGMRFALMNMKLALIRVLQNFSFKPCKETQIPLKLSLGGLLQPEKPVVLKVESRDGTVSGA

[7] = molecular target: T1, Heat shock protein HSP 90-alpha; assay: Displacement of GM-BODIPY from human full length HSP90 alpha expressed in baculovirus-infected Sf9 cells at 1 uM after 16 hrs by fluorescence polarization assay
[8] = Intrinsic clearance in human liver microsomes at 1 uM after 5 mins by LC-MS/MS analysis; assay type: ADME; details: read-out: CLH
Cytochrome P450 2C19 = Cytochrome P450 2C19 (Homo sapiens, UniProt P33261); assay: Time-dependent inhibition of CYP2C19 in human liver microsomes using mephenytoin as substrate at 10 uM; assay type: ADME; details: TDE = time-dependent effect
Chain of Cytochrome P450 2C19 (P33261 whole entry): as the sequence (P33261 whole entry) above

| Structure (SMILES) | Retention_time [1] | IC50 [2] | microsomal CLint at 1 µM [4] | inhibition at 10 µM (CYP2D6) | inhibition at 10 µM (CYP2C9) | inhibition at 10 µM (CYP1A2) | inhibition at 10 µM (CYP2C19) | inhibition at 10 µM (CYP3A4) | further results |
| --- | --- | --- | --- | --- | --- | --- | --- | --- | --- |
| COc1ccc2c(c1)c(CCN)cn2-c1cc(C(=O)N2Cc3ccccc3C2)c(O)cc1O | 2.69 min | 1.5 µM |  |  |  |  |  |  |  |
| COC(=O)c1cccc2c1ccn2-c1cc(C(=O)N2Cc3ccccc3C2)c(O)cc1O | 3.32 min | 0.13 µM |  |  |  |  |  |  |  |
| CN1CCN(C(=O)c2cc(-n3ccc4ccccc43)c(O)cc2O)CC1 | 2.35 min | 0.63 µM |  |  |  |  |  |  |  |
| O=C(c1cc(-n2ccc3ccccc32)c(O)cc1O)N1CCc2ccccc2C1 | 3.54 min | 0.13 µM |  |  |  |  |  |  |  |
| CN1CCN(C(=O)c2cc(-c3nnc4ccc(Br)cn34)c(O)cc2O)CC1 | 1.86 min |  |  |  |  |  |  |  | inhibition [3]: 8.8% |
| O=C(c1cc(Nc2ccc(Cl)cc2Cl)c(O)cc1O)N1Cc2ccccc2C1 | 3.87 min | 0.19 µM | 16 µL/min/mg | 5% | 73% | 40% | 23% | 33% | GI50 (HCT-116): 10.6 µM; GI50 [5]: 10.1 µM; GI50 (A549): 24.2 µM; GI50 [6]: 6.31 µM |
| O=C(c1cc(-n2ccc3ncccc32)c(O)cc1O)N1Cc2ccccc2C1 | 2.4 min | 0.13 µM |  |  |  |  |  |  |  |
| COc1ccc2c(c1)c(CCNC(C)=O)cn2-c1cc(C(=O)N2Cc3ccccc3C2)c(O)cc1O | 3.04 min |  |  |  |  |  |  |  | inhibition [7]: 56.9% |
| CNC(=O)c1cccc2c1ccn2-c1cc(C(=O)N2Cc3ccccc3C2)c(O)cc1O | 2.74 min | 0.62 µM |  |  |  |  |  |  |  |
| O=C(c1cc(-c2nnc3ccc(Br)cn23)c(O)cc1O)N1CCc2ccccc2C1 | 2.76 min |  |  |  |  |  |  |  | inhibition [3]: 18.7% |
| O=C(c1cc(-n2ccc3ccccc32)c(O)cc1O)N1Cc2ccccc2C1 | 3.56 min | 0.038 µM | 25 µL/min/mg | 14% | 73% | 52% | 60% | 17% | microsomal CLint at 1 µM [8]: 13 µL/min/mg; GI50 (HCT-116): 10.1 µM; GI50 [5]: 7.53 µM; GI50 (A549): 14.3 µM; GI50 [6]: 7.25 µM |
| O=C(c1cc(-n2ccc3ccccc32)c(O)cc1O)N1CCc2sccc2C1 | 3.45 min | 0.33 µM |  |  |  |  |  |  |  |
| O=C(c1cc(Nc2ccccc2)c(O)cc1O)N1Cc2ccccc2C1 | 3.12 min | 0.021 µM | 12 µL/min/mg | 22% | 68% | 72% | 52% | 19% | microsomal CLint at 1 µM [8]: 2 µL/min/mg |
| O=C(O)Cc1cn(-c2cc(C(=O)N3Cc4ccccc4C3)c(O)cc2O)c2ccccc12 | 2.97 min |  |  |  |  |  |  |  | inhibition [7]: 14.1% |
| Cc1ccc2c(ccn2-c2cc(C(=O)N3Cc4ccccc4C3)c(O)cc2O)c1 | 3.68 min | 0.038 µM | 42 µL/min/mg | 7% | 68% | 28% | 63% | 4% | GI50 (HCT-116): 8.6 µM; GI50 [5]: 7.53 µM; GI50 (A549): 11.1 µM; GI50 [6]: 7.07 µM |
| O=C(c1cc(-n2ccc3c([N+](=O)[O-])cccc32)c(O)cc1O)N1Cc2ccccc2C1 | 3.45 min | 0.039 µM | 6 µL/min/mg | 50% | 74% | 47% | 89% | 8% | microsomal CLint at 1 µM [8]: 22 µL/min/mg; inhibition (INH) (Cytochrome P450 2C19): tde |
| O=C(c1cc(-n2ccc3cc(Br)ccc32)c(O)cc1O)N1Cc2ccccc2C1 | 3.8 min | 0.078 µM | 16 µL/min/mg | 32% | 78% | 48% | 71% | 13% | microsomal CLint at 1 µM [8]: 18 µL/min/mg |
| O=C(c1cc(-n2ccc3c(Br)cccc32)c(O)cc1O)N1Cc2ccccc2C1 | 3.8 min | 0.07 µM | 49 µL/min/mg | 19% | 54% | 34% | 70% | 22% | GI50 (HCT-116): 12.3 µM; GI50 [5]: 9.67 µM; GI50 (A549): 21 µM; GI50 [6]: 8.52 µM |
| O=C(c1cc(-n2ccc3cnccc32)c(O)cc1O)N1Cc2ccccc2C1 | 2.45 min | 0.25 µM |  |  |  |  |  |  |  |
| Cc1ccc(Nc2cc(C(=O)N3Cc4ccccc4C3)c(O)cc2O)cc1 | 3.29 min | 0.071 µM |  | 7% | 75% | 61% | 58% | 38% |  |
